Results: patent publication US7629438B2, “Group of synthetic antimicrobial peptides” (priority 2002, dated 2009)
Converted amounts (≈) assume the structure as drawn. Where two headings read alike, the source gives them in different places. Ends that are not written are not given here. Peptide text beside a SMILES is read from it.

What was measured:
[1] = test system: Klebsiella pneumoniae CMCC46117; type: cell-based
Experimental: (§1) The minimum inhibitory concentrations (MIC) of the invention peptides were determined using methods described below:
(§2) The strain was recovered, inoculated into sloped medium, and grown overnight at 37° C. Typical clone selected were grown overnight at 37° C. in LB culture, diluted in the same medium to give concentrations of about 10^4-10^5 CFU/ml. The broth dilutions were set up in a 96-well microtiter plate by putting 100 μl of LB-S in every well. Added diluted peptide to every well (10 ul per well), cultured overnight at 37° C. The next day, the plates were scored for growth in the wells, and the MIC determined (In Yup Park et al.; FEBS Letters; 437 (1998) 258-262).

[2] = test system: Bacillus pumilus CMCC63202; type: cell-based
Experimental: as §1, §2

[3] = test system: Pseudomonas aeruginosa CMCC10104; type: cell-based
Experimental: as §1, §2

[4] = test system: Staphylococcus aureaus CMCC26003; type: cell-based
Experimental: as §1, §2

[5] = test system: Saccharomyces cerevisiae ATCC9736; type: cell-based
Experimental: as §1, §2

[6] = test system: Escherichia coli ATCC8099; type: cell-based
Experimental: as §1, §2

[7] = test system: Micrococcus lysoleikticus S1.634; type: cell-based
Experimental: as §1, §2

[8] = test system: Micrococcus lutea CMCC28001; type: cell-based
Experimental: as §1, §2

[9] = test system: Candida albicans ATCC10231; type: cell-based
Experimental: as §1, §2

[10] = test system: S. aureus CMCC26003; type: in vivo, Kunming mouse; conditions: for Inhibitory rate: S. aureus infected mice
Experimental: The infection model was Staphylococcus aureus infection in the Kunming mouse.
S. aureus CMCC26003 was cultured overnight, with moderate agitation, in Veal Infusion broth (Difco) and diluted in broth containing 5% hog gastric mucin (Difco). Male Kunming mice weighing approximately 20 grams were infected intraperitoneally with 10^6-10^7 viable cells. There were 3 mice in each treatment group. Antimicrobial peptide GK-1 was administered intravenously (in 0.1 ml 5% dextrose for injection), within 10 minutes of infection. Vancomycin was administered subcutaneously.

[11] = test system: Bacillus subtilis DB430; assay: MIC assay, 96-well microtiter plate; type: cell-based; conditions: Bacillus subtilis DB430 (G+)
Experimental: as §1, §2

[12] = test system: CMCC50094; assay: MIC assay, 96-well microtiter plate; type: cell-based; conditions: B Subacute sclerosing panencephalitis CMCC50094 (G−)
Experimental: as §1, §2

[13] = test system: QGY-7703 (human hepatocellular carcinoma cell)
Experimental: (§3) To determine the inhibitory activity of the peptides against tumor cells, a MTT colorimetric assay was performed. Fifty percent inhibitory concentrations of the antimicrobial peptides against tumor cells and normal fibroblasts were determined. Tumor cell K562 (human chronic myeloid leukemia cell), Bcap-37 (human breast cancer cell), QGY-7703 (human hepatocellular carcinoma cell), LOVO colon cancer cell, and mouse NIH-3T3 fibroblast were selected. These cells were provided by the College of Life Sciences, Fudan University. Cells were grown in RPMI1-1640, containing 10% inactivated calf serum. Cells were transferred into the 96-well plate at 2*10^4 cells/well, and 150 μl was added in each well. After the 96-well plate were incubated overnight at 37, in 5% carbon dioxide, 20 μl diluted peptide solution was added to each well, then incubated for 3 days, 20 μl MTT solution was added to each well, and incubated at 37° C. for 4 hours, 40 μl, 002M HCl solution containing 20% SDS was added to each well to solve the purple crystal, and incubated overnight at 37° C. The absorbance at 570 nm was determined.

[14] = test system: K562 (human chronic myeloid leukemia cell)
Experimental: as §3

[15] = test system: Bcap-37 (human breast cancer cell)
Experimental: as §3

[16] = test system: mouse NIH-3T3 fibroblast
Experimental: as §3

[17] = test system: LOVO colon cancer cell
Experimental: as §3

Compound | MIC [1] | MIC [2] | MIC [3] | MIC [4] | MIC [5] | MIC [6] | MIC [7] | MIC [8] | MIC [9] | MIC [11] | MIC [12] | inhibitory activity against tumor cells (IC50) [13] | inhibitory activity against tumor cells (IC50) [14] | inhibitory activity against tumor cells (IC50) [15] | IC50 against normal fibroblasts [16] | inhibitory activity against tumor cells (IC50) [17] | further results
CC[C@H](C)[C@@H]1NC(=O)CNC(=O)[C@H]([C@@H](C)CC)NC(=O)[C@H](CCCCN)NC(=O)[C@H](CCCCN)NC(=O)[C@H](Cc2ccccc2)NC(=O)[C@H](CC(C)C)NC(=O)[C@H](CCCCN)NC(=O)[C@H](Cc2c[nH]c3ccccc23)NC(=O)[C@H](CCCCN)NC(=O)[C@H](CCCCN)NC(=O)[C@H](CC(C)C)NC(=O)[C@H](CC(C)C)NC(=O)[C@H](CCCCN)NC(=O)[C@H](CCCNC(=N)N)NC(=O)[C@H](CC(C)C)NC(=O)CNC(=O)[C@H](CCCNC(=N)N)NC(=O)[C@H](CCCCN)NC(=O)[C@H](CC(C)C)NC(=O)[C@H](CC(C)C)NC(=O)[C@H](CCCNC(=N)N)NC(=O)CNC1=O [GK-20] (cyclo(KWKLFKKIGIGRLLKRGLRKLLK); ring closure inferred) | 10 µg/mL (≈ 3.6 µM) | 6 µg/mL (≈ 2.16 µM) | 10 µg/mL (≈ 3.6 µM) | 0.8 µg/mL (≈ 0.288 µM) | 20 µg/mL (≈ 7.21 µM) | 8 µg/mL (≈ 2.88 µM) | 2 µg/mL (≈ 0.721 µM) | 4 µg/mL (≈ 1.44 µM) | 18 µg/mL (≈ 6.49 µM) |  |  |  |  |  |  |  | 
CN[C@H](CC(C)C)C(=O)N[C@H]1C(=O)N[C@@H](CC(N)=O)C(=O)N[C@H]2C(=O)N[C@H]3C(=O)N[C@H](C(=O)N[C@H](C(=O)O)c4cc(O)cc(O)c4-c4cc3ccc4O)[C@H](O)c3ccc(c(Cl)c3)Oc3cc2cc(c3O[C@@H]2O[C@H](CO)[C@@H](O)[C@H](O)[C@H]2O[C@H]2C[C@](C)(N)[C@H](O)[C@H](C)O2)Oc2ccc(cc2Cl)[C@H]1O [Vancomycin] |  |  |  |  |  |  |  |  |  |  |  |  |  |  |  |  | Inhibitory rate ([10]; 0.5 mg/kg s.c.): 0%; Inhibitory rate ([10]; 1.0 mg/kg s.c.): 40%; Inhibitory rate ([10]; 2.0 mg/kg s.c.): 80%; Inhibitory rate ([10]; 4.0 mg/kg s.c.): 100%; Inhibitory rate ([10]; 8.0 mg/kg s.c.): 100%; Effectiveness against S. aureus infection (protection of infected mice) ([10]; dosage of 4.5 mg/kg): 100%
RFKLFKKIPRLLRRGLRKVLK [GK-19] | 2 µg/mL | 10 µg/mL | 4 µg/mL | 1.0 µg/mL | 12 µg/mL | 2 µg/mL | 4 µg/mL | 10 µg/mL | 16 µg/mL | 2 µg/mL | 1 µg/mL |  |  |  |  |  | 
KWKLFKKIGIGRLLRRLLRRLLR [GK-2] | 0.8 µg/mL | 1 µg/mL | 12 µg/mL | 0.2 µg/mL | 12 µg/mL | 0.5 µg/mL | 0.8 µg/mL | 4 µg/mL | 10 µg/mL | 4 µg/mL | 1 µg/mL | 44 µg/mL | 56 µg/mL | 47 µg/mL | >100 µg/mL | 32 µg/mL | 
RWRLFKRIGIGRLLKRGLR [GK-3] | 2 µg/mL | 0.8 µg/mL | 1.8 µg/mL | 0.5 µg/mL | 12 µg/mL | 1.6 µg/mL | 1.2 µg/mL | 3 µg/mL | 11 µg/mL | 5 µg/mL | 6 µg/mL | 21 µg/mL | 13 µg/mL | 25 µg/mL | >100 µg/mL | 31 µg/mL | 
KWKLFKKIGIGRLLKRGLRKLLK [GK-1] | 2 µg/mL | 0.5 µg/mL | 10 µg/mL | 0.4 µg/mL | 14 µg/mL | 1 µg/mL | 1.0 µg/mL | 2 µg/mL | 8 µg/mL | 4 µg/mL | 4 µg/mL | 38 µg/mL | 45 µg/mL | 52 µg/mL | >100 µg/mL | 35 µg/mL | 
RWKLFKKIEKVGRNVRDGLIKAGPAIAVIGQAKSL [cecropin A1, reference compound] | 16 µg/mL | 50 µg/mL | 18 µg/mL | 16 µg/mL | 50 µg/mL | 20 µg/mL | 50 µg/mL | 30 µg/mL | 50 µg/mL | 12 µg/mL | 12 µg/mL |  |  |  |  |  | 
